Read-outs that look alike come from different tables or passages of the source.
System: PGE2 formation in normal human epidermal keratinocytes (NHEK)
Assay: Inhibition of PGE2 formation in irritated keratinocyte cultures (PGE2 immunoassay)
Type: cell-based
Conditions: 24 h; for inhibition at 50 µM: Homo sapiens, NHEK, read-out: relative inhibition in % of PGE2 formation in keratinocyte cultures at 50 μM; for relative inhibition in % of PGE2 formation in keratinocyte cultures at μM: column head prints only 'μM' (method: 50 μM or 10 μM), calcimycin 2.5 μM
Method: A confluent culture was trypsinated and adjusted to a density of 5×10^4 cells/ml. The cells were then seeded in the same medium but with only 1% fetal calf serum in 24 well plates and cultivated for a period of 48 h. A model irritating agent was then applied to the cells by adding calcimycin to a final level of 2.5 μM. The individual compounds, as listed below, dissolved in DMSO were added simultaneously. The final concentration of the compounds was 50 μM or 10 μM, the final DMSO concentration was adjusted to 1% (v/v). Parallel treatments received no calcimycin (non-irritated control) or calcimycin without compounds according to the present invention (irritated control). The DMSO concentration was adjusted to 1% in all these control treatments. […] The prostaglandin levels in treated cell cultures were compared to the irritated and non-irritated control cultures in order to determine the relative inhibition of PGE2 formation.

[1] = 50 μM compound, irritated with calcimycin 2.5 μM, 1% DMSO

SMILES | inhibition at 50 µM [1] | relative inhibition in % of PGE2 formation in keratinocyte cultures at μM (1% DMSO) | inhibition at 50 µM
N#CC(=C1CCCC1)c1ccccc1 [2-Cyclopentylidene-2-phenylacetonitrile] | 80.8% | 71.1% | –
CCC(CC)=C(C#N)c1ccccc1 [3-Ethyl-2-phenylpent-2-enenitrile] | 73.2% | 63.9% | –
CCCCCCCC1CCCC1=O (stereo not drawn) [ALISMONE ™, 2-heptylcyclopentanone] | 92.4% | 47% | –
CCC(C)C(=O)OCCc1ccccc1 (stereo not drawn) [ANATOLYL ™, phenethyl 2-methylbutanoate] | 50.5% | – | –
CC=Cc1ccc(OC)cc1 [ANETHOLE, 1-methoxy-4-(prop-1-enyl)benzene] | 51% | – | –
CCCCCOC(=O)c1ccccc1O [Amyl salicylate, pentyl 2-hydroxybenzoate] | 89.8% | 73.5% | –
CC(C)(C)c1ccc(CCC=O)cc1 [BOURGEONAL ™, 3-(4-tert-butylphenyl)propanal] | 65% | – | –
CC(C)(C)C(=O)OCCc1ccccc1 [CENTIFOLYL ™, phenethyl pivalate] | 39% | – | –
CC(C=O)Cc1ccc(C(C)C)cc1 (stereo not drawn) [CYCLAMEN ALDEHYDE ™, 2-Methyl-3-(4-isopropylphenyl)propanal] | 82% | 32% | –
CC(=O)OCC=Cc1ccccc1 [Cinnamyl acetate] | 47.8% | – | –
O=C(C=Cc1ccccc1)OCC=Cc1ccccc1 [Cinnamyl cinnamate] | 64% | – | –
O=C(OC1CCCCC1)c1ccccc1O [Cyclohexyl salicylate, cyclohexyl 2-hydroxybenzoate] | 97.4% | 76.6% | –
CC(C)COC(=O)c1ccccc1 [Isobutyl benzoate] | 52.5% | – | –
CC(C)COC(=O)c1ccccc1O [Isobutyl salicylate, isobutyl 2-hydroxybenzoate] | 69.1% | 73.1% | –
CCOc1cc(COC)ccc1O [METHYL DIANTILIS ®, 2-Ethoxy-4-(methoxymethyl)phenol] | – | 88.2% | –
CCOc1ccc2ccccc2c1 [NEROLINE ™ CRIST, 2-ethoxynaphthalene] | 83% | 50.2% | –
N#CC(=C1CCCCC1)c1ccccc1 [PEONILE ®, 2-cyclohexylidene-2-phenylacetonitrile] | 93.3% | 92.4% | –
CCOc1cc(COC(C)C)ccc1O [PROPYL DIANTILIS, 2-Ethoxy-4-(isopropoxymethyl)phenol] | – | 95.1% | 90.9%
O=C(OCCc1ccccc1)c1ccccc1 [Phenethyl benzoate] | 92.4% | 56.9% | –
O=C(C=Cc1ccccc1)OCCc1ccccc1 [Phenethyl cinnamate] | 91.7% | 93.6% | –
CC(C)C(=O)OCCc1ccccc1 [Phenethyl isobutyrate] | 44.8% | – | –
O=C(OCCc1ccccc1)c1ccccc1O [Phenethyl salicylate] | 50.9% | – | –
CC(C)Cc1ccc(CC(C)C=O)cc1 (stereo not drawn) [SILVIAL ®, 2-Methyl-3-(4-(2-methylpropyl)phenyl)propanal] | 62.7% | – | –
CC=C(C)C(=O)OCc1ccccc1 [TIGLATE BENZYLE, benzyl 2-methylbut-2-enoate] | 72.4% | 50.2% | –
COc1ccc(CC2CC2)cc1 [TOSCANOL ®, 1-(cyclopropylmethyl)-4-methoxybenzene] | 56.7% | – | –
CC/C=C\CCOC(=O)c1ccccc1O [cis-3-Hexen-1-yl salicylate] | 94.8% | 81.4% | –
CCCCCCOC(=O)c1ccccc1O [n-Hexyl salicylate] | 82.9% | 91.6% | –
